Results on 17 compounds are retold here after PubChem BioAssay (NCI).

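Where inhibition never reached the appropriate level, the endpoint shown equals the highest concentration tested. Otherwise, values were interpolated linearly from a five-concentration, 48-hour dose response in 96-well plates. Abbreviation: GI50, concentration required for 50% inhibition of growth. TGI: concentration producing complete growth inhibition.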 Some results are limits rather than exact numbers.

Common to all, as to assay: DTP human tumour cell line panel, 48 h
The test system of assay [1] is A549 NSCLC.
Assay [2] has as its system CAKI-1 renal.
Assay [3] concerns NCI-H460 lung.
The subject of assay [4] is OVCAR-3 ovarian.
The subject of assay [5] is SNB-19 CNS.
Assay [6] deals with DU-145 prostate.
The subject of assay [7] is HCT-116 colon.
In assay [8] the test system is HOP-92 NSCLC.
Assay [9] deals with MDA-MB-231 breast.
The subject of assay [10] is MDA-MB-435.

Consider `CCOC(=O)C1SC(=Nc2ccc(Cl)c(Cl)c2)N=C1C` (configuration not stated), for which the TGI is greater than 100 µM in [1]; greater than 100 µM in [2]; greater than 100 µM in [3]; 60.6 µM in assay [4]; greater than 100 µM in assay [5].

In the case of `COc1ccc(C(=O)c2cc3c(OC)c(OC)c(OC)cc3[nH]2)cc1`, the GI50 in assay [1] is 5.77 µM; in assay [6] it was greater than 100 µM; in assay [7] it was 3.22 µM; in [8], 9.24 µM; in [9], 4.96 µM; in assay [3], 3.26 µM. Further, the GI50 in [4] is 9.07 µM; in [5], 18.6 µM. Also, the TGI in assay [1], in assay [6], in assay [7], in assay [8], in assay [9] and in [3] was greater than 100 µM throughout. Further, the TGI in assay [4] and in assay [5] was greater than 100 µM throughout.

With `CCN(CCCl)CCCNc1c2ccccc2nc2ccc(OC)cc12`, the TGI is 1300 µM in assay [1] and 1.16 µM in assay [7]. Further, the GI50 in assay [2] was 133 µM; in assay [8], 180 µM; in assay [3], 129 µM; in [4], 119 µM; in [5] it was 205 µM.

With `c1ccc2c(c1)[nH]c1cnc3c4cccnc4[nH]c3c12`, the TGI in [1] was determined as 34.7 µM; in assay [2] it was 33.7 µM; in assay [7], 30.8 µM; in assay [8], 60.7 µM; in assay [3], 50.1 µM; in assay [4] it was 32.2 µM. The compound also came in with a TGI in assay [5] of 37.3 µM.

For the compound `O=C1CN(C(=O)c2ccccc2)Cc2[nH]c3ccccc3c21`, the TGI in [1], in assay [7], in assay [8], in assay [3], in assay [4] and in assay [5] was greater than 100 µM throughout.

For `CCCCOC(=O)NC(=O)c1cn(CCSCCOC(=O)NCCCCCCNC(=O)OCCSCCn2cc(C(=O)NC(=O)OCCCC)c(=O)[nH]c2=O)c(=O)[nH]c1=O`, the TGI in assay [1] was greater than 100 µM; in [7], greater than 100 µM; in assay [8], 71.8 µM; in [3], greater than 100 µM; in assay [4] it was greater than 100 µM; in assay [5], greater than 100 µM.

In the case of `O=C(OCC1CO1)c1cccs1` (configuration not stated), the TGI in assay [1], in assay [2], in [8], in assay [3], in assay [4] and in assay [5] was greater than 100 µM in each case.

Consider `O=C(O)c1cc2cc(OCc3ccccc3)c(OCc3ccccc3)cc2[nH]1`, for which the GI50 in assay [2] was 20.7 µM; in assay [6] it was 32.8 µM; in assay [7], 17.1 µM; in assay [9] it was 28.2 µM; in [10], 19.2 µM; in [3] it was 17.8 µM. The GI50 in assay [4] was 17.3 µM; in assay [5], 32.1 µM. The TGI was 51.3 µM in assay [2]; greater than 100 µM in assay [6]; 30.8 µM in assay [7]; 79 µM in assay [9]; 47.9 µM in assay [10]; 33.4 µM in assay [3]. The TGI in assay [4] was 31.6 µM; in assay [5], greater than 100 µM.

With `Nc1c(C(=O)Nc2ccccc2)[n+]([O-])c2ccccc2[n+]1[O-]`, the total growth inhibition concentration (TGI) turned out to be 68 µM in [1]; 16.8 µM in assay [2]; 32.1 µM in assay [8]; 35.7 µM in [3]; 31.7 µM in assay [4]; 31 µM in assay [5].

Consider `COc1ccc(/C=C\c2cc(OC)c(OC)c(OC)c2)cc1OC(=O)CCC(=O)O`, for which the GI50 in [1] was 0.157 µM; in [2] it was less than 0.0001 µM. Further, the TGI in assay [1] is greater than 100 µM; in assay [2], greater than 100 µM; in assay [10], less than 0.0001 µM; in [3] it was 31.5 µM; in assay [5] it was greater than 100 µM.

For the compound `Fc1ccc(C2SCc3nc4ccccc4n32)cc1` (configuration not stated), the TGI was greater than 100 µM in assay [1]; greater than 100 µM in assay [2]; greater than 100 µM in assay [7]; 62 µM in assay [8]; greater than 100 µM in assay [3]; 77.6 µM in assay [4]. Further, the TGI in assay [5] came to 9.64 µM.

As to `Cc1cccc(C2=NC(C)(C)C(C)(C)N=C2c2cccc(C)n2)n1`, the TGI in assay [1], in assay [2], in [7], in assay [8], in assay [3] and in assay [4] was greater than 100 µM in each case. In addition, the TGI in assay [5] was greater than 100 µM.

As for `CC(C)(C)C(=O)ON1N=NC2C3CC(OCc4ccccc4)(OCc4ccccc4)C(O3)C21` (configuration not stated), the TGI in assay [1] is greater than 100 µM; in assay [2], greater than 100 µM; in assay [8], 27.2 µM; in [3] it was 60.4 µM; in [4] it was 35.9 µM.

Regarding `O=C1Nc2cc([N+](=O)[O-])ccc2NC1/C(=N\Nc1ccccc1)C(O)c1cccc([N+](=O)[O-])c1` (configuration not stated), the TGI in assay [1], in assay [7], in assay [8], in assay [3], in assay [4] and in assay [5] was greater than 100 µM each time.

As for `Cc1cc(NS(=O)(=O)c2ccc(NC(=O)c3cccc4c(Nc5ccc(S(=O)(=O)N=C(N)N)cc5)c5ccccc5nc34)cc2)no1`, the TGI in assay [1], in [2], in assay [7], in assay [8], in [3] and in assay [4] was greater than 100 µM in each case. In [5], this compound returned a TGI greater than 100 µM.

Regarding `CN1CC(C(=O)C2C(=O)c3ccccc3C2=O)C(=O)C(=O)C(C(=O)C2C(=O)c3ccccc3C2=O)C1` (configuration not stated), the TGI in [1] was greater than 100 µM; in assay [2] it was greater than 100 µM; in assay [7] it was greater than 100 µM; in assay [8], greater than 100 µM; in assay [3], greater than 100 µM; in assay [4] it was greater than 10 µM. Moreover, the TGI in assay [5] is greater than 100 µM.

Turning to `O=C(C(=O)N1CC2C=CC1CC2)c1c[nH]c2ccccc12` (configuration not stated), the TGI in [1], in [2], in [7], in assay [8], in assay [3] and in [5] was greater than 100 µM each time.

One may read the TGI as the concentration at which net growth stops. Read a low TGI as greater sensitivity of the cells. One may read the GI50 as the concentration at which growth is held to half of that of the control.
